Experimental data as given in PubChem BioAssay (NCI).
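Five concentrations, 48 hours, 96-well plates. GI50: concentration for 50% inhibition of growth. Definition used: TGI = concentration required for complete inhibition of growth.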

Assays:
Assay in all cases: DTP human tumour cell line panel, 48 h
[1] = tested on: SNB-78 CNS
[2] = tested on: DLD-1 colon
[3] = tested on: XF 498 CNS
[4] = tested on: LXFL 529 NSCLC
[5] = tested on: M19-MEL melanoma
[6] = tested on: HOP-18 NSCLC
[7] = tested on: DMS 273 small cell lung
[8] = tested on: PC-3 prostate
[9] = tested on: MDA-MB-435
[10] = tested on: NCI/ADR-RES ovarian
[11] = tested on: MCF7 breast

Structure (SMILES)	TGI [1]	TGI [2]	TGI [3]	TGI [4]	TGI [5]	TGI [6]	TGI [7]	GI50 [1]	GI50 [4]	GI50 [5]	GI50 [6]	GI50 [7]	TGI [8]	TGI [9]	TGI [10]	TGI [11]
COc1ccc(/C=C\c2cc(OC)c3c(c2)OCO3)c(O)c1O	16 µM	23 µM	26.6 µM	3.74 µM	31.1 µM	46.4 µM	> 100 µM									
CC1(C)COC(c2ccc(C(F)(F)F)cc2C(O)c2ccc3ccccc3c2)=N1 (stereo not drawn)	> 100 µM	> 10 µM	> 100 µM	> 100 µM	> 100 µM	> 100 µM	> 100 µM	> 10 µM	> 100 µM	> 100 µM	> 100 µM	> 100 µM				
CN(CC(=O)O)S(=O)(=O)c1ccc2ccccc2c1		> 100 µM	> 100 µM	> 100 µM	> 100 µM	> 100 µM	> 100 µM									
CC(=O)OC(C)C(=O)C1c2cccc(O)c2C(=O)c2c(O)cc(C)cc21 (stereo not drawn)		3.22 µM	0.465 µM		1.23 µM		1.85 µM									
COc1ccccc1NC(=O)CC(=O)n1nc(C)c(N=Nc2ccccc2C(=O)O)c1C	> 100 µM	> 100 µM	> 100 µM	> 100 µM	> 100 µM		> 100 µM									
O=c1cc(-c2cccc(O)c2)[nH]c2cc3c(cc12)OCO3	54.2 µM	> 100 µM	> 100 µM	> 100 µM	95.9 µM	> 100 µM	4.23 µM						> 100 µM	0.997 µM	4 µM	> 100 µM
CC(=O)NC1=C(NCC(C)(C)C)C(=O)c2ccccc2C1=O	> 100 µM	> 100 µM	65.5 µM	> 100 µM	39.8 µM		> 100 µM									
CCOC(=O)C(Sc1ccccc1)c1c(OC)cc(=O)oc1/C=[N+](/[O-])c1ccc(N(C)C)cc1 (stereo not drawn)	78.9 µM	> 100 µM	27.7 µM	27.2 µM	37.5 µM	61.6 µM	29 µM									
C/C(CCn1[nH]c(=O)ccc1=O)=N\O	> 100 µM	> 100 µM	> 100 µM	> 100 µM	> 100 µM	> 100 µM	> 100 µM									
COc1ccc(NC(=O)c2cc(OC)cc(OC)c2)cc1	83.3 µM	> 100 µM	> 100 µM	> 100 µM		> 100 µM	> 100 µM									
O=C1C2=C(SCCS2)C(=O)c2ccccc21		3.53 µM	3.01 µM	3.02 µM	0.616 µM		3.31 µM									
CC(=O)OC1COC(n2c(=S)n(-c3ccc(C)cc3)c(=O)c3ccccc32)C(OC(C)=O)C1OC(C)=O (stereo not drawn)	> 100 µM	> 100 µM	> 100 µM	> 100 µM	> 100 µM	> 100 µM	> 100 µM									
O=C(CSC(=S)N1CCCCC1)Nc1nc2c(s1)CCCC2	> 100 µM	> 100 µM	71.3 µM	> 100 µM	> 100 µM		> 100 µM									
Nc1ccc(C(=O)N/C(=C\c2ccc3c(c2)OCO3)c2nc3[nH]c(=S)[nH]c(=O)c3[nH]2)cc1	> 100 µM	> 100 µM	> 100 µM	> 100 µM	> 100 µM											
O=[S@@]1Nc2ccc(Br)cc2S1	> 100 µM	> 100 µM	> 100 µM	> 100 µM	> 100 µM		> 100 µM									
CC1CN1P1(N2CC2C)=NP(N2CC2C)(N2CC2C)=NP(N2CC2C)(N2CC2C)=N1 (stereo not drawn)		> 50 µM	> 50 µM	> 50 µM	> 50 µM	> 50 µM	> 50 µM									
CCOC(=O)COc1cccc2c1C(=O)CCO2	> 100 µM	> 100 µM	> 100 µM	> 100 µM	> 100 µM		> 100 µM									
COc1ccc2nc3cc(Cl)ccc3c(Sc3ccccc3[N+](=O)[O-])c2c1	> 100 µM	> 100 µM	97.8 µM	> 100 µM	> 100 µM	> 100 µM	> 100 µM									
CCNC1C2(CCCCC2)NC(=O)C12CCCCC2 (stereo not drawn)	> 100 µM	> 100 µM	> 100 µM	> 100 µM	> 100 µM		> 100 µM									
CC(C)=CCCc1c(C)ccc2c1C(=O)C(=O)C(C(C)C)=C2		6.51 µM	7.15 µM	6.65 µM	7.87 µM	8.12 µM	7.47 µM									
CSc1ccc(/C=C2\CN(C)C/C(=C\c3ccc(SC)cc3)C2=O)cc1	> 100 µM	> 100 µM	58 µM	35.7 µM	> 100 µM	> 100 µM	> 100 µM									
CCN(CC)CC(C(=O)Nc1c(C)cccc1C)/C(C)=N\NC(=O)C[N+](C)(C)C (stereo not drawn)	> 100 µM	> 100 µM	> 100 µM	> 100 µM	> 100 µM		> 100 µM									
COc1cccc(NC(=O)CC(=O)n2nc(C)c(N=Nc3ccccc3)c2C)c1	> 100 µM	> 100 µM	> 100 µM	> 100 µM	> 100 µM	71.4 µM	> 100 µM									
CC1=C(C(=O)Nc2ccccc2C)C(c2ccco2)C(C(=O)Nc2ccccc2C)=C(C)N1C	> 100 µM	> 100 µM	> 100 µM	> 100 µM	> 100 µM	> 100 µM										
CC1(C)OC(=O)C(=Cc2ccc(O)cc2)C(=O)O1	> 100 µM		> 100 µM	> 100 µM	> 100 µM		> 100 µM									
